The source of these data is US20090253709A1 (NATIONAL DEFENSE MEDICAL CENTER, priority 2008, published 2009).

The first assay deals with telomerase. In words: Telomeric repeat amplification protocol (TRAP). Format: biochemical. The following applies: compounds at 100, 10 and 1 μM; gel electrophoresis.
Turning to `O=C(CN1CCCC1)Nc1ccc2c(c1)C(=O)c1cc(NC(=O)CN3CCCC3)ccc1C2=O` [Compound 6, 2,7-Bis[2-(pyrrolidino)acetamido]anthraquinone], the “telomerase inhibition effect in TRAP assay” value is recorded as “telomerase inhibition effect”.

`CCNCC(=O)Nc1ccc2c(c1)C(=O)c1cc(NC(=O)CNCC)ccc1C2=O` [Compound 10, 2,7-Bis[2-(ethylamino)acetamido]anthraquinone]: the “telomerase inhibition effect in TRAP assay” value is “telomerase inhibition effect”.

As for `CC(C)NCC(=O)Nc1ccc2c(c1)C(=O)c1cc(NC(=O)CNC(C)C)ccc1C2=O` [Compound 13, 2,7-Bis[2-(isopropylamino)acetamido]anthraquinone], the “telomerase inhibition effect in TRAP assay” value is recorded as “telomerase inhibition effect”.

In the next assay the test system is hTERT expression. Kind of assay: SEAP assay, H1299/PhTERT-driven SEAP system. Format: cell-based, human. The following applies: Homo sapiens, NCI-H1299, read-out: SEAP (Inhibition μM ± SD). The source says:
The condition of the cells for selecting the telomerase inhibitor must be the cancer cells with telomerase activity. H1299 is a non-small cell lung cancer cell line with telomerase activity. The hTERT communication gene linked behind PhTERT which is located at the fifth chromosome of H1299 cell can be expressed; however, this expression is hard to detect. Therefore, the plasmid having the SEAP communication gene linked behind PhTERT was transfected into H1299 cells. Under the identical condition, after PhTERT was activated, the SEAP communication gene linked behind the plasmid was also activated. This gene could be detected by this analytic method while expressing.
If additionally added reagent can inhibit PhTERT, the linked SEAP communication gene will not be expressed, and the hTERT communication gene linked behind PhTERT at the fifth chromosome will not be expressed. […]
The cellular medium after the cellular incubation was transferred into the eppondorf tube, and the activity of endogeneous alkaline phosphatase was inactivated at 65° C. for 10 minutes. After centrification, the mixture was obtained by mixing 50 μl of the supernatant with the equal volume of the SEAP buffer. The mixture and the substrate (120 mM of p-nitrophenylphosphate) were preheated at 37° C. for 10 minutes respectively, and the mixture and the substrate were mixed at a ratio of 1:10 and reacted at 37° C. The absorbance of visible light at 405 nm was determined at the appropriate time intervals, and the enzymatic activity of SEAP was represented by the speed of the increasing absorbance at 405 nm.
The selection of telomerase inhibitors of the anthraquinone compounds provided in the present invention was performed by the H1299/PhTERT-driven SEAP system. SEAP is the communication gene in this drug selection model. The SEAP inhibition was shown as follows. The quantitative cellular medium obtained after the 24-hour drug-treatment and the identical inactivation was reacted with the quantitative SEAP substrate, and the absorbance at 405 nm was detected for 5 time intervals. Subsequently, the linear slope of absorbance to the measuring time was calculated, and the variance of absorbance at 405 nm per minute was represented and compared with the SEAP-producing result of drug-untreated H1299 cells. In addition, the influence of the cell-treated drug solution to the cellular proliferation and the drug toxicity to the cells were considered, and the cellular growth was evaluated by the MTT assay. The drug-treated cells were analyzed by the SEAP assay and the data analysis of MTT assay at the same time. Both results were compared so as to delete the influence of cell number or the activity to SEAP, and the dose-dependent phenomenon could be anticipated in the range of drug concentration designed by the laboratory.
In the preliminary selection, the highest concentration was 1000 μM, and 10-fold serial dilutions were done. Therefore, the final concentrations for treating cells were 1 μM, 10 μM and 100 μM, and the drug concentrations were repeated for 5 times. Since the chemically-synthetic drugs have colors thereon, the SEAP value of drug-treatment without cells was also determined to be the background value which was deducted while treating with the drugs. The candidate drug for inhibiting telomerase on the hTERT gene expression level was evaluated and anticipated.
With `O=C(CCl)Nc1ccc2c(c1)C(=O)c1cc(NC(=O)CCl)ccc1C2=O` [Compound 3, 2,7-bis(chloroacetamido)anthraquinone], the activity at 1 µM stood at 72 ± 3%, the activity at 10 µM was found to be 40 ± 1% and the activity at 100 µM is 36 ± 1%.

On to `CCNCC(=O)Nc1ccc2c(c1)C(=O)c1cc(NC(=O)CNCC)ccc1C2=O` [Compound 10, 2,7-Bis[2-(ethylamino)acetamido]anthraquinone], for which the activity at 1 µM is 60 ± 10%, the activity at 10 µM was 35 ± 5% and the activity at 100 µM was found to be 34 ± 3%.

Turning to `CC(C)NCC(=O)Nc1ccc2c(c1)C(=O)c1cc(NC(=O)CNC(C)C)ccc1C2=O` [Compound 13, 2,7-Bis[2-(isopropylamino)acetamido]anthraquinone], the activity at 1 µM was determined as 73 ± 31%, the activity at 10 µM was 28 ± 18% and the activity at 100 µM came to 21 ± 16%.

As to `CCNCCC(=O)Nc1ccc2c(c1)C(=O)c1cc(NC(=O)CCNCC)ccc1C2=O` [Compound 22, 2,7-Bis[3-(ethylamino)propionamido]anthraquinone], the activity at 1 µM was determined as 68 ± 29%, the activity at 10 µM was found to be 33 ± 24% and the activity at 100 µM was 22 ± 13%.

Still in this assay, the particulars now being: Homo sapiens, NCI-H1299; H1299; compound concentration 1 μM; read-out: SEAP (Inhibition μM ± SD).
For `O=C1c2ccc([N+](=O)[O-])cc2C(=O)c2cc([N+](=O)[O-])ccc21` [Compound 1, 2,7-dinitroanthraquinone], the activity at 1 µM amounted to 87 ± 13%.

With `Nc1ccc2c(c1)C(=O)c1cc(N)ccc1C2=O` [Compound 2, 2,7-Diaminoanthraquinone], the activity at 1 µM is 87 ± 10%.

For the molecule `CCN(CC)CC(=O)Nc1ccc2c(c1)C(=O)c1cc(NC(=O)CN(CC)CC)ccc1C2=O` [Compound 4, 2,7-Bis[2-(diethylamino)acetamido]anthraquinone], the activity at 1 µM came to 90 ± 3%.

Consider `CCCCNCC(=O)Nc1ccc2c(c1)C(=O)c1cc(NC(=O)CNCCCC)ccc1C2=O` [Compound 5, 2,7-Bis[2-(butylamino)acetamido]anthraquinone], for which the activity at 1 µM came to 77 ± 18%.

With `O=C(CN1CCCC1)Nc1ccc2c(c1)C(=O)c1cc(NC(=O)CN3CCCC3)ccc1C2=O` [Compound 6, 2,7-Bis[2-(pyrrolidino)acetamido]anthraquinone], the activity at 1 µM was 88 ± 10%.

Turning to `O=C(CN1CCCCC1)Nc1ccc2c(c1)C(=O)c1cc(NC(=O)CN3CCCCC3)ccc1C2=O` [Compound 7, 2,7-Bis[2-(piperidino)acetamido]anthraquinone], the activity at 1 µM is 74 ± 19%.

`CCCNCC(=O)Nc1ccc2c(c1)C(=O)c1cc(NC(=O)CNCCC)ccc1C2=O` [Compound 9, 2,7-Bis[2-(propylamino)acetamido]anthraquinone]: the activity at 1 µM amounted to 73 ± 17%.

As to `CN1CCN(CC(=O)Nc2ccc3c(c2)C(=O)c2cc(NC(=O)CN4CCN(C)CC4)ccc2C3=O)CC1` [Compound 11, 2,7-Bis[2-(N-methylpiperazino)acetamido]anthraquinone], the activity at 1 µM worked out at 76 ± 21%.

Staying with this assay, now noted: Homo sapiens, NCI-H1299; H1299; compound concentration 10 μM; read-out: SEAP (Inhibition μM ± SD).
For the molecule `O=C1c2ccc([N+](=O)[O-])cc2C(=O)c2cc([N+](=O)[O-])ccc21` [Compound 1, 2,7-dinitroanthraquinone], the activity at 10 µM worked out at 85 ± 21%.

As to `Nc1ccc2c(c1)C(=O)c1cc(N)ccc1C2=O` [Compound 2, 2,7-Diaminoanthraquinone], the activity at 10 µM is 75 ± 8%.

Regarding `CCN(CC)CC(=O)Nc1ccc2c(c1)C(=O)c1cc(NC(=O)CN(CC)CC)ccc1C2=O` [Compound 4, 2,7-Bis[2-(diethylamino)acetamido]anthraquinone], the activity at 10 µM was 61 ± 11%.

On to `CCCCNCC(=O)Nc1ccc2c(c1)C(=O)c1cc(NC(=O)CNCCCC)ccc1C2=O` [Compound 5, 2,7-Bis[2-(butylamino)acetamido]anthraquinone], for which the activity at 10 µM came to 26 ± 17%.

`O=C(CN1CCCC1)Nc1ccc2c(c1)C(=O)c1cc(NC(=O)CN3CCCC3)ccc1C2=O` [Compound 6, 2,7-Bis[2-(pyrrolidino)acetamido]anthraquinone]: the activity at 10 µM was 48 ± 13%.

In the case of `O=C(CN1CCCCC1)Nc1ccc2c(c1)C(=O)c1cc(NC(=O)CN3CCCCC3)ccc1C2=O` [Compound 7, 2,7-Bis[2-(piperidino)acetamido]anthraquinone], the activity at 10 µM was determined as 69 ± 20%.

With `CCCNCC(=O)Nc1ccc2c(c1)C(=O)c1cc(NC(=O)CNCCC)ccc1C2=O` [Compound 9, 2,7-Bis[2-(propylamino)acetamido]anthraquinone], the activity at 10 µM came to 44 ± 16%.

Take `CN1CCN(CC(=O)Nc2ccc3c(c2)C(=O)c2cc(NC(=O)CN4CCN(C)CC4)ccc2C3=O)CC1` [Compound 11, 2,7-Bis[2-(N-methylpiperazino)acetamido]anthraquinone]: the activity at 10 µM was 50 ± 11%.

The same assay, now with this note: Homo sapiens, NCI-H1299; H1299; compound concentration 100 μM; read-out: SEAP (Inhibition μM ± SD).
On to `O=C1c2ccc([N+](=O)[O-])cc2C(=O)c2cc([N+](=O)[O-])ccc21` [Compound 1, 2,7-dinitroanthraquinone], for which the activity at 100 µM was 62 ± 8%.

Regarding `Nc1ccc2c(c1)C(=O)c1cc(N)ccc1C2=O` [Compound 2, 2,7-Diaminoanthraquinone], the activity at 100 µM was 63 ± 12%.

As for `CCN(CC)CC(=O)Nc1ccc2c(c1)C(=O)c1cc(NC(=O)CN(CC)CC)ccc1C2=O` [Compound 4, 2,7-Bis[2-(diethylamino)acetamido]anthraquinone], the activity at 100 µM is 37 ± 10%.

As to `CCCCNCC(=O)Nc1ccc2c(c1)C(=O)c1cc(NC(=O)CNCCCC)ccc1C2=O` [Compound 5, 2,7-Bis[2-(butylamino)acetamido]anthraquinone], the activity at 100 µM turned out to be 20 ± 13%.

In the case of `O=C(CN1CCCC1)Nc1ccc2c(c1)C(=O)c1cc(NC(=O)CN3CCCC3)ccc1C2=O` [Compound 6, 2,7-Bis[2-(pyrrolidino)acetamido]anthraquinone], the activity at 100 µM is 30 ± 10%.

`O=C(CN1CCCCC1)Nc1ccc2c(c1)C(=O)c1cc(NC(=O)CN3CCCCC3)ccc1C2=O` [Compound 7, 2,7-Bis[2-(piperidino)acetamido]anthraquinone]: the activity at 100 µM was 63 ± 15%.

With `CCCNCC(=O)Nc1ccc2c(c1)C(=O)c1cc(NC(=O)CNCCC)ccc1C2=O` [Compound 9, 2,7-Bis[2-(propylamino)acetamido]anthraquinone], the activity at 100 µM is 24 ± 10%.

On to `CN1CCN(CC(=O)Nc2ccc3c(c2)C(=O)c2cc(NC(=O)CN4CCN(C)CC4)ccc2C3=O)CC1` [Compound 11, 2,7-Bis[2-(N-methylpiperazino)acetamido]anthraquinone], for which the activity at 100 µM came out at 23 ± 9%.
